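A five-concentration, 48-hour dose response in 96-well plates underlies each endpoint, interpolated linearly between surrounding concentrations. At the TGI there is no net growth.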
Key:
Assay in all cases: growth of human tumour cells (NCI), 48 h
[1] = tested on: 786-0 renal
[2] = tested on: A498 renal
[3] = tested on: A549 NSCLC
[4] = tested on: ACHN renal
[5] = tested on: CCRF-CEM leukemia
[6] = tested on: COLO 205 colon
[7] = tested on: DLD-1 colon
[8] = tested on: DMS 114 small cell lung
[9] = tested on: DMS 273 small cell lung
[10] = tested on: EKVX NSCLC
[11] = tested on: HCC-2998 colon
[12] = tested on: HCT-15 colon
[13] = tested on: HL-60(TB) leukemia
[14] = tested on: HOP-18 NSCLC
[15] = tested on: HT29 colon
[16] = tested on: IGROV1 ovarian
[17] = tested on: K-562 leukemia
[18] = tested on: KM12 colon
[19] = tested on: LOX IMVI melanoma
[20] = tested on: LXFL 529 NSCLC
[21] = tested on: M14 melanoma
[22] = tested on: M19-MEL melanoma
[23] = tested on: MALME-3M melanoma
[24] = tested on: MOLT-4 leukemia
[25] = tested on: NCI-H226 lung
[26] = tested on: NCI-H23 lung
[27] = tested on: NCI-H460 lung
[28] = tested on: OVCAR-3 ovarian
[29] = tested on: OVCAR-4 ovarian
[30] = tested on: OVCAR-5 ovarian
[31] = tested on: OVCAR-8 ovarian
[32] = tested on: RPMI-8226 leukemia
[33] = tested on: RXF 393 renal
[34] = tested on: RXF-631 renal
[35] = tested on: SF-268 CNS
[36] = tested on: SF-295 CNS
[37] = tested on: SF-539 CNS
[38] = tested on: SK-MEL-28 melanoma
[39] = tested on: SK-MEL-5 melanoma
[40] = tested on: SK-OV-3 ovarian
[41] = tested on: SN12C renal
[42] = tested on: SNB-19 CNS
[43] = tested on: SNB-75 CNS
[44] = tested on: SNB-78 CNS
[45] = tested on: SR leukemia
[46] = tested on: SW-620 colon
[47] = tested on: TK-10 renal
[48] = tested on: U251 CNS
[49] = tested on: UACC-62 melanoma
[50] = tested on: UO-31 renal
[51] = tested on: XF 498 CNS
[52] = tested on: CAKI-1 renal
[53] = tested on: HOP-62 NSCLC
[54] = tested on: HOP-92 NSCLC
[55] = tested on: NCI-H522 lung
[56] = tested on: SK-MEL-2 melanoma
[57] = tested on: UACC-257 melanoma

## Cn1c2c(c3ccccc31)C1CCCCCCC1C1C(=O)OC(=O)C21 (centres undefined)
[1]
  TGI: > 100 µM
[2]
  TGI: > 100 µM
[3]
  TGI: > 100 µM
[4]
  TGI: > 100 µM
[5]
  TGI: 59 µM
[6]
  TGI: > 100 µM
[7]
  TGI: > 100 µM
[8]
  TGI: 75.2 µM
[9]
  TGI: 42.7 µM
[10]
  TGI: > 100 µM
[11]
  TGI: 70.3 µM
[12]
  TGI: > 100 µM
[13]
  TGI: 63.1 µM
[14]
  TGI: > 100 µM
[15]
  TGI: > 100 µM
[16]
  TGI: 73.8 µM
[17]
  TGI: 75.3 µM
[18]
  TGI: > 100 µM
[19]
  TGI: 51.2 µM
[20]
  TGI: > 100 µM
[21]
  TGI: > 100 µM
[22]
  TGI: > 100 µM
[23]
  TGI: 69 µM
[24]
  TGI: 65.8 µM
[25]
  TGI: > 100 µM
[26]
  TGI: > 100 µM
[27]
  TGI: > 100 µM
[28]
  TGI: 47.8 µM
[29]
  TGI: > 100 µM
[30]
  TGI: > 100 µM
[31]
  TGI: > 100 µM
[32]
  TGI: 61.2 µM
[33]
  TGI: 49 µM
[34]
  TGI: > 100 µM
[35]
  TGI: > 100 µM
[36]
  TGI: > 100 µM
[37]
  TGI: > 100 µM
[38]
  TGI: > 100 µM
[39]
  TGI: > 100 µM
[40]
  TGI: > 100 µM
[41]
  TGI: > 100 µM
[42]
  TGI: > 100 µM
[43]
  TGI: > 100 µM
[44]
  TGI: > 100 µM
[45]
  TGI: 87.4 µM
[46]
  TGI: > 100 µM
[47]
  TGI: > 100 µM
[48]
  TGI: > 100 µM
[49]
  TGI: > 100 µM
[50]
  TGI: > 100 µM
[51]
  TGI: 93.1 µM

## COC(=O)C(=Cc1cc(OC)ccc1OC)C(=O)OC
[1]
  TGI: 53.5 µM
[3]
  TGI: 92 µM
[4]
  TGI: 35.1 µM
[52]
  TGI: 43.3 µM
[5]
  TGI: 61.8 µM
[6]
  TGI: 34.1 µM
[7]
  TGI: 91.3 µM
[8]
  TGI: 53.1 µM
[9]
  TGI: > 100 µM
[10]
  TGI: 72.2 µM
[11]
  TGI: 34 µM
[12]
  TGI: > 100 µM
[13]
  TGI: 59.1 µM
[53]
  TGI: 64.1 µM
[54]
  TGI: 60 µM
[15]
  TGI: 56.5 µM
[16]
  TGI: 56.9 µM
[17]
  TGI: 53.6 µM
[18]
  TGI: 42.8 µM
[19]
  TGI: 50.1 µM
[20]
  TGI: 36 µM
[21]
  TGI: 36.6 µM
[22]
  TGI: 79.5 µM
[23]
  TGI: 74.6 µM
[24]
  TGI: > 100 µM
[25]
  TGI: > 100 µM
[27]
  TGI: 91.6 µM
[55]
  TGI: 34.4 µM
[28]
  TGI: 50.6 µM
[29]
  TGI: 51.6 µM
[30]
  TGI: 61.5 µM
[31]
  TGI: > 100 µM
[32]
  TGI: 92.2 µM
[33]
  TGI: 31.3 µM
[34]
  TGI: 88.3 µM
[35]
  TGI: > 100 µM
[36]
  TGI: 82.1 µM
[37]
  TGI: 65.2 µM
[56]
  TGI: 50.1 µM
[38]
  TGI: 82.9 µM
[39]
  TGI: 42.7 µM
[40]
  TGI: 76.2 µM
[41]
  TGI: 64.3 µM
[42]
  TGI: > 100 µM
[43]
  TGI: 97 µM
[44]
  TGI: > 100 µM
[46]
  TGI: 55.6 µM
[47]
  TGI: 97.4 µM
[48]
  TGI: 42.9 µM
[57]
  TGI: 35.1 µM
[49]
  TGI: 73.7 µM
[50]
  TGI: 50.9 µM
[51]
  TGI: 47.4 µM

Reference: PubChem BioAssay (NCI)
